# Measured values as given in patent US20210284638A1 (Saint Louis University, priority 2018, published 2021).
# Counter-ions that a name gives are not always drawn.
# Assays:
# [1] = biological target: T1, Recombinant human integrin αVβ3 (Homo sapiens, UniProt P05106+P06756); assay: Solid Phase Receptor Assay for αVβ3 function; format: binding; conditions: plate-bound human vitronectin; read-out: αVβ3 SPRA IC50
# T1 construct: purchased R&D Systems 3050-AV
# Description: C. […] Wells were washed 3 times with 150 μL TBS+ and then 150 μL of blocking buffer (TBS+ with 1% bovine serum albumin, Sigma A7906) was added. The plate was incubated for 1 hr at 37° C. and then washed 3× with TBS+ buffer. […] Compounds were diluted to 20 μM and then 1 μL was added to each well of the plate according to a standard template with each sample repeated in triplicate. After incubation for two hours at room temperature, the plate was washed 3× with 150 μL of TBS+ buffer. To each well, 50 μL of biotinylated anti-αV antibody (R&D Systems, BAF1219) at 0.5 μg/mL in TBS+/0.1% BSA were added and the plate covered and incubated for 1 hr at room temperature. After washing the plate 3× with 150 μL of TBS+ buffer, 50 μL of streptavidin-conjugated horseradish peroxidase (R&D Systems, DY998) diluted in TBS+ blocking buffer were added to the wells and the plate incubated for 20 min at room temperature. The plate was washed 3× with TBS+ buffer followed by 50 μL of TMB substrate (Sigma, T4444) added to each well in the dark and the plate was incubated for 25 min at room temperature. 25 μL of 1.0 M phosphoric acid was added as a stop solution and the plates were read at 450 nm using a Spectramax plate reader.
# [2] = biological target: T2, Recombinant human integrin αVβ8 (Homo sapiens, UniProt P06756+P26012); assay: Solid Phase Receptor Assay for αVβ8 function; format: binding; conditions: plate-bound human LAP; read-out: αVβ8 SPRA IC50
# T2 construct: purchased R&D Systems 4135-AV
# Description: F. Solid Phase Receptor Assay (SFRA) for αVβ8 Function
# Wells were washed 3 times with 150 μL TBS+ and then 150 μL of blocking buffer (TBS+ with 1% bovine serum albumin, Sigma A7906) was added. The plate was incubated for 1 hr at 37° C. and then washed 3× with TBS+. […] Compounds were diluted to 20 μM and 1 μL was added to each well of the plate according to a standard template with each sample repeated in triplicate. After incubation for two hours at room temperature, the plate was washed 3× with 150 μL of TBS+. To each well, 50 μL of biotinylated anti-αV antibody (R&D Systems, BAF1219) at 1 μg/mL in TBS+/0.1% BSA were added and the plate was covered and incubated for 1 hr at room temperature. After washing the plate 3× with 150 μL of TBS+ buffer, 50 μL of streptavidin-conjugated horseradish peroxidase (R&D Systems, DY998) diluted in TBS+ blocking buffer were added to the wells and the plate incubated for 20 min at room temperature. The plate was washed 3× with TBS+ followed by 50 μL of TMB substrate (Sigma T4444) added to each well in the dark and the plate incubated for 10 min at room temperature. 25 μL of 1.0 M phosphoric acid was added as a stop solution and the plates were read at 450 nm using a Spectramax plate reader.
# T1 sequence (P06756 31-992 limits assumed): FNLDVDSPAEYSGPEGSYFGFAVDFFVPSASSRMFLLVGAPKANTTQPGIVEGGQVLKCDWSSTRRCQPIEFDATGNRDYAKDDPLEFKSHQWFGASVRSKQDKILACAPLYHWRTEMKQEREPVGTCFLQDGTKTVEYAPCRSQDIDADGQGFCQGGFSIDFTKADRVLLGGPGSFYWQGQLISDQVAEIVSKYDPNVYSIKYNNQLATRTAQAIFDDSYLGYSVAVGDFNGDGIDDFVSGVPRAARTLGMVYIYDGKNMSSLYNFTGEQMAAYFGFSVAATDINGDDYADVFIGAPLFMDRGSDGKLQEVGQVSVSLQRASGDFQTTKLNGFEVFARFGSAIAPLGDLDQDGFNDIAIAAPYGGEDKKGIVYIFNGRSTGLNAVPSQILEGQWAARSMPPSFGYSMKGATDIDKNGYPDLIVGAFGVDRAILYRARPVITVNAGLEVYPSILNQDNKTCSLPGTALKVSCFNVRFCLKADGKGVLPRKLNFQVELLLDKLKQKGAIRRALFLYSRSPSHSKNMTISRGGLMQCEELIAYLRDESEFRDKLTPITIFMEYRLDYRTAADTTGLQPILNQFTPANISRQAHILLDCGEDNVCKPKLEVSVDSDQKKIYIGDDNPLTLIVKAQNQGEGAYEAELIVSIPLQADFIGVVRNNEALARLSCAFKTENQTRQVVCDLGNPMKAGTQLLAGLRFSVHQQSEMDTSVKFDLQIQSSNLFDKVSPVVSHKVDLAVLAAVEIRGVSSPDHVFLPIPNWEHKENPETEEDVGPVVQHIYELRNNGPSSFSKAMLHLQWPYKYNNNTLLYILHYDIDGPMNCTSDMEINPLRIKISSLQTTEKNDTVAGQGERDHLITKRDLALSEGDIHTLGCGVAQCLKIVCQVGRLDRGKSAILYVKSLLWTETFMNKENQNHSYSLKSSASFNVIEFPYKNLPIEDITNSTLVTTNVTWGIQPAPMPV
# T1 sequence (P05106 27-718 limits assumed): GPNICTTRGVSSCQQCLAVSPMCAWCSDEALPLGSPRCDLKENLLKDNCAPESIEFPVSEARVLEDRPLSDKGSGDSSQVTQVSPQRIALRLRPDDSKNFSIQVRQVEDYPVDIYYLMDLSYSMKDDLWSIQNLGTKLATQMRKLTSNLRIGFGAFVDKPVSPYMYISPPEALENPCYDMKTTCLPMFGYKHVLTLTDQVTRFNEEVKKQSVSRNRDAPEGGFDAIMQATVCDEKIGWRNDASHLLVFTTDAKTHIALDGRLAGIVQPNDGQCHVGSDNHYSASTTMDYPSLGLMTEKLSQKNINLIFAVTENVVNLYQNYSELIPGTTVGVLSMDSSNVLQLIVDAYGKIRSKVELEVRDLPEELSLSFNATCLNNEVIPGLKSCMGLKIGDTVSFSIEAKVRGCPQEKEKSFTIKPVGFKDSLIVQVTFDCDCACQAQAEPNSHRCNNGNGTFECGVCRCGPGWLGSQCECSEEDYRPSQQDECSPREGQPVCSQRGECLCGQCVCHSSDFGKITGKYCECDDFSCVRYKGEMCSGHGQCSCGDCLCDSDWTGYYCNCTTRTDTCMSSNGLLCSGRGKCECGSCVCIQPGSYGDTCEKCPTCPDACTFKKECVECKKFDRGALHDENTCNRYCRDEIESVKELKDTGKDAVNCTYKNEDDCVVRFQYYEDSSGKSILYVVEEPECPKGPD
# T2 sequence (P06756 31-992 limits assumed): as the sequence (P06756 31-992 limits assumed) above
# T2 sequence (P26012 43-684 limits assumed): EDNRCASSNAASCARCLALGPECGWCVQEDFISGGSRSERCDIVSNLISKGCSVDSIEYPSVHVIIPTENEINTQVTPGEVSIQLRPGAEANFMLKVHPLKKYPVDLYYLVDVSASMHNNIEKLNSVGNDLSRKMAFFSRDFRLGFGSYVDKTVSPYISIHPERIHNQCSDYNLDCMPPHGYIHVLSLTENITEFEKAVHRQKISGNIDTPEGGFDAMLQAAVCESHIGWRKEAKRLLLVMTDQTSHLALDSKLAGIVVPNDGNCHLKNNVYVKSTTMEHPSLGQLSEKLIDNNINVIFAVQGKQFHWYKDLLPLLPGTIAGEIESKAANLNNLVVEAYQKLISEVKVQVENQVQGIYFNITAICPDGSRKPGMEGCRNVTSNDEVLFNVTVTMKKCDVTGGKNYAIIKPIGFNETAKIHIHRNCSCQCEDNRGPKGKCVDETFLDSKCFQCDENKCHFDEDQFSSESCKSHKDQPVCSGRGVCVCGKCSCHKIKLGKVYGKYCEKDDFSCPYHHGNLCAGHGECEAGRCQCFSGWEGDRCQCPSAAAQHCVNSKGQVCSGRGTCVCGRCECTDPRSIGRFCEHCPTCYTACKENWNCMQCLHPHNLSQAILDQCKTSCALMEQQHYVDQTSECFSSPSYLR
SMILES,IC50 [1] [nM],IC50 [2] [nM]
"Cn1nc(CC(CC(=O)O)c2cc(C(C)(C)C)ccc2OC(F)(F)F)cc1OCCc1ccc2c(n1)NCCC2 (centres unmarked) [Example 20, 3-(5-(tert-butyl)-2-(trifluoromethoxy)phenyl)-4-(1-methyl-5-(2-(5,6,7,8-tetrahydro-1,8-naphthyridin-2-yl)ethoxy)-1H-pyrazol-3-yl)butanoic acid]",880,67
"COc1ccc(C2(C(F)F)CC2)cc1C(CC(=O)O)Cc1cc(OCCc2ccc3c(n2)NCCC3)n(C)n1 (centres unmarked) [Example 21, 3-[5-[1-(difluoromethyl)cyclopropyl]-2-methoxy-phenyl]-4-[1-methyl-5-[2-(5,6,7,8-tetrahydro-1,8-naphthyridin-2-yl)ethoxy]pyrazol-3-yl]butanoic acid]",340,140
"COc1ccc(C(C)(C)O)cc1C(CC(=O)O)Cc1cc(OCCc2ccc3c(n2)NCCC3)n(C)n1 (centres unmarked) [Example 22, 3-(5-(2-hydroxypropan-2-yl)-2-methoxyphenyl)-4-(1-methyl-5-(2-(5,6,7,8-tetrahydro-1,8-naphthyridin-2-yl)ethoxy)-1H-pyrazol-3-yl)butanoic acid]",5,79
"COc1ccc(C2COC2)cc1C(CC(=O)O)Cc1cc(OCCc2ccc3c(n2)NCCC3)n(C)n1 (centres unmarked) [Example 23, 3-[2-methoxy-5-(oxetan-3-yl)phenyl]-4-[1-methyl-5-[2-(5,6,7,8-tetrahydro-1,8-naphthyridin-2-yl)ethoxy]pyrazol-3-yl]butanoic acid]",26,190
"COc1ccc(S(F)(F)(F)(F)F)cc1C(CC(=O)O)Cc1cc(OCCc2ccc3c(n2)NCCC3)n(C)n1 (centres unmarked) [Example 24, 3-[2-methoxy-5-(pentafluoro-sulfanyl)phenyl]-4-[1-methyl-5-[2-(5,6,7,8-tetrahydro-1,8-naphthyridin-2-yl)ethoxy]pyrazol-3-yl]butanoic acid]",130,33
"COc1c(C(C)C)cc(C(CC(=O)O)Cc2cc(OCCc3ccc4c(n3)NCCC4)n(C)n2)cc1C(C)C (centres unmarked) [Example 25, 3-(3,5-diisopropyl-4-methoxy-phenyl)-4-[1-methyl-5-[2-(5,6,7,8-tetrahydro-1,8-naphthyridin-2-yl)ethoxy]pyrazol-3-yl]butanoic acid]",37,18
"COc1c(C(C)C)cc(C(CC(=O)O)Cc2csc(CCCc3ccc4c(n3)NCCC4)n2)cc1C(C)C (centres unmarked) [Example 26, 3-(3,5-diisopropyl-4-methoxy-phenyl)-4-[2-[3-(5,6,7,8-tetrahydro-1,8-naphthyridin-2-yl)propyl]thiazol-4-yl]butanoic acid]",530,38
"CC(C)(C)c1cc(C(CC(=O)O)Cc2csc(CCCc3ccc4c(n3)NCCC4)n2)cc(C(C)(C)C)c1 (centres unmarked) [Example 27, 3-(3,5-di-tert-butylphenyl)-4-(2-(3-(5,6,7,8-tetrahydro-1,8-naphthyridin-2-yl)propyl)thiazol-4-yl)butanoic acid]",2900,55
"COc1ccc(C(C)(C)C)cc1C(CC(=O)O)Cc1csc(CCCc2ccc3c(n2)NCCC3)n1 (centres unmarked) [Example 28, 3-(5-(tert-butyl)-2-methoxyphenyl)-4-(2-(3-(5,6,7,8-tetrahydro-1,8-naphthyridin-2-yl)propyl)thiazol-4-yl)butanoic acid]",1500,31
"COc1c(C(C)(C)C)cc(C(CC(=O)O)Cc2csc(CCCc3ccc4c(n3)NCCC4)n2)cc1C(C)(C)C (centres unmarked) [Example 29, 3-(3,5-di-tert-butyl-4-methoxyphenyl)-4-(2-(3-(5,6,7,8-tetrahydro-1,8-naphthyridin-2-yl)propyl)thiazol-4-yl)butanoic acid]",1600,87
"CC(C)(C)c1cc(C(CC(=O)O)Cc2csc(CCCc3ccc4c(n3)NCCC4)n2)cc(C2(C(F)F)CC2)c1 (centres unmarked) [Example 30, 3-[3-tert-butyl-5-[1-(difluoromethyl)cyclopropyl]phenyl]-4-[2-[3-(5,6,7,8-tetrahydro-1,8-naphthyridin-2-yl)propyl]thiazol-4-yl]butanoic acid]",720,25
"CC(C)(C)c1cc(C(CC(=O)O)Cc2csc(CCCc3ccc4c(n3)NCCC4)n2)cc(C(C)(C)C(F)(F)F)c1 (centres unmarked) [Example 31, 3-[3-tert-butyl-5-(2,2,2-trifluoro-1,1-dimethyl-ethyl)phenyl]-4-[2-[3-(5,6,7,8-tetrahydro-1,8-naphthyridin-2-yl)propyl]thiazol-4-yl]butanoic acid]",2600,76
"COCC1(c2cc(C(CC(=O)O)Cc3csc(CCCc4ccc5c(n4)NCCC5)n3)cc(C(C)(C)C)c2)CCOCC1 (centres unmarked) [Example 32, 3-[3-tert-butyl-5-[4-(methoxymethyl)tetrahydropyran-4-yl]phenyl]-4-[2-[3-(5,6,7,8-tetrahydro-1,8-naphthyridin-2-yl)propyl]thiazol-4-yl]butanoic acid]",600,14
"CC(C)(C)c1ccc(C#N)c(C(CC(=O)O)Cc2csc(CCCc3ccc4c(n3)NCCC4)n2)c1 (centres unmarked) [Example 33, 3-(5-tert-butyl-2-cyano-phenyl)-4-[2-[3-(5,6,7,8-tetrahydro-1,8-naphthyridin-2-yl)propyl]thiazol-4-yl]butanoic acid]",38,8
CC(C)(C)c1ccc(Br)c(C(CC(=O)O)Cc2csc(CCCc3ccc4c(n3)NCCC4)n2)c1 (centres unmarked) [Example 34],2500,140
"COc1ccc(C(F)(F)F)cc1C(CC(=O)O)Cc1csc(CCCc2ccc3c(n2)NCCC3)n1 (centres unmarked) [Example 35, 3-[2-methoxy-5-(trifluoromethyl)phenyl]-4-[2-[3-(5,6,7,8-tetrahydro-1,8-naphthyridin-2-yl)propyl]thiazol-4-yl]butanoic acid]",78,51
"COc1ccc(C2(C(F)F)CC2)cc1C(CC(=O)O)Cc1csc(CCCc2ccc3c(n2)NCCC3)n1 (centres unmarked) [Example 36, 3-(5-(1-(difluoromethyl)cyclopropyl)-2-methoxyphenyl)-4-(2-(3-(5,6,7,8-tetrahydro-1,8-naphthyridin-2-yl)propyl)thiazol-4-yl)butanoic acid]",840,29
"COc1ccc(C2=CCOCC2)cc1C(CC(=O)O)Cc1csc(CCCc2ccc3c(n2)NCCC3)n1 (centres unmarked) [Example 37, 3-[5-(3,6-dihydro-2H-pyran-4-yl)-2-methoxy-phenyl]-4-[2-[3-(5,6,7,8-tetrahydro-1,8-naphthyridin-2-yl)propyl]thiazol-4-yl]butanoic acid]",230,83
"COc1ccc(C2=CCOCC2)cc1[C@H](CC(=O)O)Cc1csc(CCCc2ccc3c(n2)NCCC3)n1 [Example 37A, (S)-3-(5-(3,6-dihydro-2H-pyran-4-yl)-2-methoxyphenyl)-4-(2-(3-(5,6,7,8-tetrahydro-1,8-naphthyridin-2-yl)propyl)thiazol-4-yl)butanoic acid trifluoroacetate]",160,43
"COc1ccc(C2=CCOCC2)cc1[C@@H](CC(=O)O)Cc1csc(CCCc2ccc3c(n2)NCCC3)n1 [Example 37B, (R)-3-(5-(3,6-dihydro-2H-pyran-4-yl)-2-methoxyphenyl)-4-(2-(3-(5,6,7,8-tetrahydro-1,8-naphthyridin-2-yl)propyl)thiazol-4-yl)butanoic acid trifluoroacetate]",940,5600
"Cc1cc(C)n(-c2cccc(C(CC(=O)O)Cc3csc(CCc4ccc5c(n4)NCCC5)n3)c2)n1 (centres unmarked) [Example 38, 3-(3-(3,5-dimethyl-1H-pyrazol-1-yl)phenyl)-4-(2-(2-(5,6,7,8-tetrahydro-1,8-naphthyridin-2-yl)ethyl)thiazol-4-yl)butanoic acid]",9,2700
"CC(C)(C)c1cc(C(CC(=O)O)Cc2cc(OCCc3ccc4c(n3)NCCC4)n(CC(F)(F)F)n2)cc(C(C)(C)C)c1 (centres unmarked) [Example 40, 3-(3,5-di-tert-butylphenyl)-4-(5-(2-(5,6,7,8-tetrahydro-1,8-naphthyridin-2-yl)ethoxy)-1-(2,2,2-trifluoroethyl)-1H-pyrazol-3-yl)butanoic acid trifluoroacetate]",740,30
